In brackets after ≈: the same amount, converted by molar mass. Where two headings read alike, the source gives them in different places. Marks after values point to notes of the source that are not given here.

In test [1] the test system is MRSA ATCC33591. Briefly: MIC by broth microdilution assay according to CLSI. The test is classed as cell-based, Staphylococcus aureus. As for the experimental part:
The MICs of endocardisin, vancomycin and daptomycin were determined by a broth microdilution assay according to Clinical Laboratory Standards Institute (CLSI). MIC is defined as the lowest drug concentration completely inhibiting organisms growth.

For test [2], the system named is MRSA ATCC33591. The experiment in a line: Experimental rabbit aortic infective endocarditis model, Example 1 (end of treatment and relapse). The test is classed as in vivo, Staphylococcus aureus. The conditions noted are these: for Staphylococcus aureus densities, Kidneys / Staphylococcus aureus densities, Spleen / Staphylococcus aureus densities, Vegetations / Staphylococcus aureus densities, Kidneys (Relapse) / Staphylococcus aureus densities, Spleen (Relapse) / Staphylococcus aureus densities, Vegetations (Relapse): rabbit, iv, 3 days; for Staphylococcus aureus densities, Kidneys / Staphylococcus aureus densities, Spleen / Staphylococcus aureus densities, Vegetations: 24 h after last dose, mean ± SD; for Staphylococcus aureus densities, Kidneys (Relapse) / Staphylococcus aureus densities, Spleen (Relapse) / Staphylococcus aureus densities, Vegetations (Relapse): then drug-free for an extra 3 days. The method, then:
Experimental aortic infective endocarditis model was induced in New Zealand White rabbits with a methicillin-resistant Staphylococcus aureus (MRSA), strain ATCC33591, following trans-carotid-transaortic valve indwelling catheterization.
After aortic catheterization and 24 hr post-infection, animals were randomized to receive either:
i) no therapy (control); ii) endocardisin at 40 mg/kg, iv, twice daily; iii) vancomycin at 15 mg/kg, iv, twice daily; or iv) daptomycin at 12 mg/kg, iv, once daily (the latter two dose-strategies to mimic human-like PK).
Treatments lasted for 3 days. At 24 hours after the last antibiotic dose, half the animals were sacrificed with a lethal dose of sodium pentobarbital to test the treatment efficacies. The remaining animals resided drug-free for an extra 3 days for relapse studies. At sacrifice, vegetations, kidneys and spleen were removed and quantitatively cultured. […] Culture results were expressed as mean log10 CFU per gram of tissue (±SD).

In test [3] the test system is MRSA ATCC33591. The experiment in a line: Experimental rabbit infective endocarditis model, Example 2 (dose response). The test is classed as in vivo, Staphylococcus aureus. To be noted: for Staphylococcus aureus densities, Kidneys / Staphylococcus aureus densities, Spleen / Staphylococcus aureus densities, Vegetations: rabbit, 3 days, 24 h after last dose. As for the experimental part:
Rabbit IE was induced following transcarotid-transaortic valve indwelling catheterization. At 24 hrs after iv infection with 10^6 cfu MRSA ATCC33591 (ID95 inoculum), animals received either:
i) no therapy (control); ii) endocardisin at 5, 10 or 20 mg/kg, iv, bid; iii) vancomycin at 15 mg/kg, iv, bid; or iv) daptomycin at 12 mg/kg, iv, once-daily;
All regimens were for 3 days. At 24 hours after the last antibiotic dose, target tissues were removed and quantitatively cultured.

In the test on MRSA ATCC33591 [1] (Staphylococcus aureus), `CN[C@H](CC(C)C)C(=O)N[C@H]1C(=O)N[C@@H](CC(N)=O)C(=O)N[C@H]2C(=O)N[C@H]3C(=O)N[C@H](C(=O)N[C@H](C(=O)O)c4cc(O)cc(O)c4-c4cc3ccc4O)[C@H](O)c3ccc(c(Cl)c3)Oc3cc2cc(c3O[C@@H]2O[C@H](CO)[C@@H](O)[C@H](O)[C@H]2O[C@H]2C[C@](C)(N)[C@H](O)[C@H](C)O2)Oc2ccc(cc2Cl)[C@H]1O` [vancomycin] gave an MIC of 2 µg/mL (≈ 1.38 µM). In the test with MRSA ATCC33591 [2] (15 mg/kg, twice-daily), the “Staphylococcus aureus densities, Kidneys” value is recorded as 3.07 +/− 0.53 log10 CFU/g tissue; the “Staphylococcus aureus densities, Spleen” value is recorded as 3.02 +/− 0.51 log10 CFU/g tissue; the “Staphylococcus aureus densities, Vegetations” value was 5.60 +/− 1.47 log10 CFU/g tissue; the “Staphylococcus aureus densities, Kidneys (Relapse)” value is given as 4.69 +/− 1.63 log10 CFU/g tissue. In the test on MRSA ATCC33591 [2] (15 mg/kg, twice-daily), the “Staphylococcus aureus densities, Spleen (Relapse)” value is on record as 3.98 +/− 1.27 log10 CFU/g tissue and the “Staphylococcus aureus densities, Vegetations (Relapse)” value is 6.36 +/− 1.57 log10 CFU/g tissue. In the test with MRSA ATCC33591 [3] (15 mg/kg, iv, twice-daily), the “Staphylococcus aureus densities, Kidneys” value was 3.07 +/− 0.53 log10 CFU/g tissue; the “Staphylococcus aureus densities, Spleen” value is 3.02 +/− 0.51 log10 CFU/g tissue; the “Staphylococcus aureus densities, Vegetations” value is reported as 5.60 +/− 1.47 log10 CFU/g tissue.
Take `CCCCCCCCCC(=O)N[C@@H](Cc1c[nH]c2ccccc12)C(=O)N[C@H](CC(N)=O)C(=O)N[C@@H](CC(=O)O)C(=O)N[C@@H]1C(=O)NCC(=O)N[C@@H](CCCN)C(=O)N[C@@H](CC(=O)O)C(=O)N[C@H](C)C(=O)N[C@@H](CC(=O)O)C(=O)NCC(=O)N[C@H](CO)C(=O)N[C@@H]([C@H](C)CC(=O)O)C(=O)N[C@@H](CC(=O)c2ccccc2N)C(=O)O[C@@H]1C` [daptomycin]: the MIC in the test on MRSA ATCC33591 [1] (Staphylococcus aureus, study strain MRSA ATCC33591, lowest drug concentration completely inhibiting growth, read-out: MIC) is 0.125 µg/mL (≈ 0.0771 µM). Moreover, in the test with MRSA ATCC33591 [2] (12 mg/kg, once-daily), the “Staphylococcus aureus densities, Kidneys” value was 0.76 +/− 0.52* log10 CFU/g tissue; the “Staphylococcus aureus densities, Spleen” value is 0.91 +/− 0.53* log10 CFU/g tissue; the “Staphylococcus aureus densities, Vegetations” value is given as 1.90 +/− 0.82* log10 CFU/g tissue; the “Staphylococcus aureus densities, Kidneys (Relapse)” value is reported as 1.68 +/− 2.24** log10 CFU/g tissue. Moreover, in the test on MRSA ATCC33591 [2] (12 mg/kg, once-daily), the “Staphylococcus aureus densities, Spleen (Relapse)” value is recorded as 1.30 +/− 1.48** log10 CFU/g tissue and the “Staphylococcus aureus densities, Vegetations (Relapse)” value is listed as 2.46 +/− 2.36** log10 CFU/g tissue. In addition, in the test with MRSA ATCC33591 [3] (12 mg/kg, iv, once-daily), the “Staphylococcus aureus densities, Kidneys” value is reported as 0.76 +/− 0.53 log10 CFU/g tissue; the “Staphylococcus aureus densities, Spleen” value was 0.91 +/− 0.53 log10 CFU/g tissue; the “Staphylococcus aureus densities, Vegetations” value was 1.90 +/− 0.82 log10 CFU/g tissue.
Turning to “endocardisin: synthetic defensin; a polypeptide having the amino acid sequence shown in SEQ ID NO: 1 (GFGCNGPWNEDDLRCHNHCKSIKGYKGGYCAKGGFVCKCY)”, the MIC in the test with MRSA ATCC33591 [1] (study strain MRSA ATCC33591, lowest drug concentration completely inhibiting growth) is 0.5 micrograms/ml. Also, the preventing relapse result in the test on MRSA ATCC33591 [2] (3 days drug-free after 3 days treatment) was “most effective in preventing relapse”. Further, the “reduction of MRSA densities in all target tissues as compared with vancomycin therapy” value with MRSA ATCC33591 [2] (endocardisin 40 mg/kg iv twice daily, P<0.001) was “significantly greater efficacy”. In addition, in the test with MRSA ATCC33591 [2] (40 mg/kg, twice-daily), the “Staphylococcus aureus densities, Kidneys” value is on record as 1.18 +/− 0.75* log10 CFU/g tissue; the “Staphylococcus aureus densities, Spleen” value was 1.02 +/− 0.65* log10 CFU/g tissue; the “Staphylococcus aureus densities, Vegetations” value is listed as 2.41 +/− 1.50* log10 CFU/g tissue; the “Staphylococcus aureus densities, Kidneys (Relapse)” value was 0.75 +/− 0.79* log10 CFU/g tissue. Besides, in the test on MRSA ATCC33591 [2] (40 mg/kg, twice-daily), the “Staphylococcus aureus densities, Spleen (Relapse)” value is on record as 1.17 +/− 0.70* log10 CFU/g tissue and the “Staphylococcus aureus densities, Vegetations (Relapse)” value was 1.45 +/− 0.64* log10 CFU/g tissue. Also, in the test with MRSA ATCC33591 [3] (5, 10 or 20 mg/kg, iv, bid), the “dose dependence of therapeutic efficacy in all target tissues” value is given as “dose-dependent therapeutic efficacy”. The “reduction of MRSA densities in all target tissues vs. vancomycin therapy” value in the test on MRSA ATCC33591 [3] (endocardisin at 20 mg/kg) is “significantly greater efficacy”. In addition, in the test with MRSA ATCC33591 [3] (5 mg/kg, iv, twice-daily), the “Staphylococcus aureus densities, Kidneys” value is recorded as 4.33 +/− 1.27 log10 CFU/g tissue; the “Staphylococcus aureus densities, Spleen” value is listed as 4.61 +/− 1.11 log10 CFU/g tissue; the “Staphylococcus aureus densities, Vegetations” value is recorded as 6.44 +/− 1.70 log10 CFU/g tissue. Besides, in the test with MRSA ATCC33591 [3] (10 mg/kg, iv, twice-daily), the “Staphylococcus aureus densities, Kidneys” value is on record as 3.19 +/− 1.06 log10 CFU/g tissue; the “Staphylococcus aureus densities, Spleen” value is reported as 2.62 +/− 0.60 log10 CFU/g tissue; the “Staphylococcus aureus densities, Vegetations” value was 4.74 +/− 1.84 log10 CFU/g tissue. Moreover, in the test on MRSA ATCC33591 [3] (20 mg/kg, iv, twice-daily), the “Staphylococcus aureus densities, Kidneys” value was 0.61 +/− 0.21 log10 CFU/g tissue; the “Staphylococcus aureus densities, Spleen” value is reported as 0.61 +/− 0.12 log10 CFU/g tissue; the “Staphylococcus aureus densities, Vegetations” value was 1.57 +/− 0.75 log10 CFU/g tissue.

For the origin of these results see patent US20110130326A1, “DEFENSINS FOR TREATMENT OF INFECTIVE ENDOCARDITIS” (Novozymes A/S, priority 2009, published 2011).
